B1: ovalbumin (protein, UniProt P01012 2-386, looked up)
Ovalbumin: GSIGAASMEFCFDVFKELKVHHANENIFYCPIAIMSALAMVYLGAKDSTRTQINKVVRFDKLPGFGDSIEAQCGTSVNVHSSLRDILNQITKPNDVYSFSLASRLYAEERYPILPEYLQCVKELYRGGLEPINFQTAADQARELINSWVESQTNGIIRNVLQPSSVDSQTAMVLVNAIVFKGLWEKAFKDEDTQAMPFRVTEQESKPVQMMYQIGLFRVASMASEKMKILELPFASGTMSMLVLLPDEVSGLEQLESIINFEKLTEWTSSNVMEERKIKVYLPRMKMEEKYNLTSVLMAMGITDVFSSSANLSGISSAESLKISQAVHAAHAEINEAGREVVGSAEAGVDAASVSEEFRADHPFLFCIKHIATNAVLFFGRCVSP
notes: orally consumed novel innocuous food antigen

Test system: neurons in the mid-posterior insular cortex (mpIC)
Assay: Arc expression in the mpIC of Arc-dVenus reporter mice after oral consumption
Assay type: in vivo
Conditions: for response of neurons in the mpIC (Arc expression) to oral consumption: Arc-dVenus reporter mice, compared with water
Procedure: The expression of Arc was evaluated by immunohistochemical staining for GFP (green) to amplify the signal of dVenus and co-localized with DAPI nuclear staining (blue). Dotted lines are based on Allen Brain Atlas and depict the cytoarchitectonic layers of the insular cortex (granular insula; GI, dysgranular insula; DI, agranular insula; AI) and the claustrum (CI). Scale bar, 200 μm. (1B) A graph showing manual quantification of Arc-positive cells that were identified by GFP and DAPI double-positive staining per region of interest (ROI=[…]) in mice that were exposed to water or OVA. Student's t-test; mean±s.e.m; n=3, 4; **P<0.01. (1C) Maps showing the location of the insular cortex in mice (upper left). Arc-expressing neurons following oral consumption of OVA were found in the mid-posterior region of the insula (upper right) that comprises both gustatory and visceral cortices (lower panel). (1D) A location map and micrographs showing validation of the injection site in the mpIC. Representative image describing the expression of the inhibiting form of designer receptors exclusively activated by designer drugs (DREADDs; Gi) in neurons following stereotactic injection of a viral vector (AAV8-hSyn-hM4Di (Gi)-mCherry), in the GI and DI layers of the mpIC ((0.14-0.18) mm Anterior-Posterior (AP); (3.6-3.8) mm Medial-Lateral (ML); (2.5-2.6) mm Dorsal-Ventral (DV)).
FIGS. 5A-5F include fluorescent micrographs, graphs, and location maps, showing representation of aversive information in the mpIC. […] The expression of Arc was evaluated as described in FIG. 1A. Dotted lines are based on Allen Brain Atlas, and depict the cytoarchitectonic layers of the insular cortex (granular insula; GI, dysgranular insula; DI, agranular insula; AI) and the claustrum (CI). Scale bar, 200 μm. (5B) Manual quantification of Arc-positive cells in the region of interest (ROI=[…]) was performed as described in FIG. 1A in mice that consumed water or denatonium benzoate. Student's t-test; mean±s.e.m; n=3, 5; *P<0.05. (5C) The images show Arc expression in the mpIC of Arc-dVenus reporter mice that were exposed to OVA (left panel) or denatonium benzoate (right panel). The numbers (1-6) represent the layers of the cerebral cortex. Scale bar, 200 μm. (5D) Graphs represent the difference in total Arc expression (left) and the distribution of Arc-positive cells in the 3 cytoarchitectonic layers of the insular cortex (GI, DI, and AI) following exposure of mice to OVA or denatonium benzoate. […] (5F) Graphs depict the total difference in Arc-positive cells in the ⅔ layer of the cerebral cortex (left) of the mpIC and expression of Arc in this layer divided by the insular layers (GI, DI, and AI). Student's t-test; mean±s.e.m; n=3, 5; *P<0.05, **P<0.01.
Thus far, the inventors exposed the mice only to positive appetitive signals, however, whether the mpIC also responds to aversive information that can inform about the presence of pathogens, left unclear. To answer this question the inventors used the Arc reporter mice, except this time they were exposed to the bitter substance denatonium benzoate.

Molecule | response of neurons in the mpIC (Arc expression) to oral consumption | Arc-positive cells in the granular layer (GI) of the mpIC (denatonium benzoate (bitter) compared to OVA) | total number of activated neurons in the mpIC (denatonium benzoate compared to OVA) | Arc expression in the AI layer of the mpIC (OVA-consuming mice compared to mice exposed to denatonium benzoate)
CC[N+](CC)(CC(=O)Nc1c(C)cccc1C)Cc1ccccc1 [denatonium benzoate] | neurons in the mpIC also respond | less Arc-positive cells | no significant difference | –
B1 | respond to oral consumption of OVA | – | – | lower expression

From patent US20200376287A1, “METHODS FOR INCREASING TGF-B SIGNALING” (TECHNION RESEARCH & DEVELOPMENT FOUNDATION LIMITED, priority 2019, published 2020)
